In US20250313563A1, “GLYCOGEN SYNTHASE KINASE 3 INHIBITORS AND USES THEREOF” (The Broad Institute, Inc., priority 2022, published 2025):
Where two headings read alike, the source gives them in different places.

Columns and labels:
[1] = target: GSK3α (GST-full length GSK3α) (Homo sapiens (Human), UniProt P49840); experiment: GSK3α TR-FRET kinase assay; type: biochemical
Summary of the method: (§1)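 Compound was preincubated 30 min with 1 nM GST-GSK3 enzyme. Reaction ran 100 min at ambient temperature in Tris pH 7.5/MgCl2 with 200 nM biotinylated pS645-glycogen synthase 631-650 peptide and ATP (4 μM GSK3α, 2 μM GSK3b, or 1 mM). The EDTA-stopped reaction was read by TR-FRET (Tb-anti-pSer641/streptavidin-d2), and IC50s were fitted.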

[2] = target: GSK3b (GST-full length GSK3b) (Homo sapiens (Human), UniProt P49841); experiment: GSK3b TR-FRET kinase assay; type: biochemical
Summary of the method: as §1

[3] = 1 nM GSK3α, 4 μM ATP, 30 minute preincubation, Table 16, read-out: GSK3-A TR-FRET BIOCHEMICAL (TR-FRET)
[4] = 1 nM GSK3b, 2 μM ATP, 30 minute preincubation, Table 16, read-out: GSK3-B TR-FRET BIOCHEMICAL (TR-FRET)
[5] = read-out: GSK3-A (TR-FRET 1 mM ATP), GMean, IC50, 1 mM ATP, geometric mean
[6] = read-out: GSK3-B (TR-FRET 1 mM ATP), GMean, IC50, 1 mM ATP, geometric mean
[7] = 1 nM GSK3α, 4 μM ATP, 30 minute preincubation, read-out: GSK3-A TR-FRET BIOCHEMICAL (TR-FRET), IC50
[8] = 1 nM GSK3b, 2 μM ATP, 30 minute preincubation, read-out: GSK3-B TR-FRET BIOCHEMICAL (TR-FRET), IC50

Chain of GSK3α (GST-full length GSK3α) (P49840 whole entry): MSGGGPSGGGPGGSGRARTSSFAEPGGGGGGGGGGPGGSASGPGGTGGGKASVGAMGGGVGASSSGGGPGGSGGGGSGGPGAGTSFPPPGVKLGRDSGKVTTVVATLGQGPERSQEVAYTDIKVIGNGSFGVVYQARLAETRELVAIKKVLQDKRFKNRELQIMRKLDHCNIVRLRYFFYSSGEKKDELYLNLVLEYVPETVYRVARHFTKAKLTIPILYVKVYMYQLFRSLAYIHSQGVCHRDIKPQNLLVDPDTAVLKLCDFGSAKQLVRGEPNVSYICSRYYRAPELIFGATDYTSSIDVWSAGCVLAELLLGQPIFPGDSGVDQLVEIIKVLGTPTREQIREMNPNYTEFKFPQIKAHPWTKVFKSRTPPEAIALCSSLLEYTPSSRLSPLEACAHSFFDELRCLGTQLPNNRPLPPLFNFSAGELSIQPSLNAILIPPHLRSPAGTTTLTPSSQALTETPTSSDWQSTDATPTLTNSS
Chain of GSK3b (GST-full length GSK3b) (P49841 whole entry): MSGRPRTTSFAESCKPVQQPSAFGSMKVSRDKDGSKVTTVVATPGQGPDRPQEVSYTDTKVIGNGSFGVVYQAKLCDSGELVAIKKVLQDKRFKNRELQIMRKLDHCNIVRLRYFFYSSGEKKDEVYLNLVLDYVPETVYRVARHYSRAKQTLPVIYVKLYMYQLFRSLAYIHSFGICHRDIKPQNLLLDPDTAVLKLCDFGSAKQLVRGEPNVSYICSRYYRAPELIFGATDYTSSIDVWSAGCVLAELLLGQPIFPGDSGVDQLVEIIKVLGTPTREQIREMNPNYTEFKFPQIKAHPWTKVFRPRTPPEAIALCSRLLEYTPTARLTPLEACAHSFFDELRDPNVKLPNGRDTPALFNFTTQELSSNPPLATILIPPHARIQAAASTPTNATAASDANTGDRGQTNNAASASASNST

Compound | IC50 [1, 3] | IC50 [2, 4] | IC50 [1, 7] | IC50 [2, 8] | also measured
CCC1(c2cccc(-c3ccnc(O)c3)c2)C2=C(CC(C)(C)CC2=O)Nc2n[nH]cc21 (centres unmarked) [Compound 943992] | ≤ 100 nM | 100 to 1000 nM |  |  | 
CCC1(c2cccc(-c3cnnc(C)c3)c2)C2=C(CC(C)(C)CC2=O)Nc2n[nH]cc21 (centres unmarked) [Compound 943994] | ≤ 100 nM | ≤ 100 nM |  |  | IC50 [1, 5]: 100 to 1000 nM; IC50 [2, 6]: 1000 to 5000 nM
CCC1(c2cccc(-c3c(C)nnn3C)c2)C2=C(CC(C)(C)CC2=O)Nc2n[nH]cc21 (centres unmarked) [Compound 943996] | ≤ 100 nM | ≤ 100 nM |  |  | IC50 [1, 5]: ≤ 100 nM; IC50 [2, 6]: 100 to 1000 nM
CCC1(c2cccc(S(=O)(=O)C3COC3)c2)C2=C(CC(C)(C)CC2=O)Nc2n[nH]cc21 (centres unmarked) [Compound 944017] | ≤ 100 nM | ≤ 100 nM |  |  | 
CCC1(c2cccc(S(=O)(=O)C3CCOC3)c2)C2=C(CC(C)(C)CC2=O)Nc2n[nH]cc21 (centres unmarked) [Compound 944018] | ≤ 100 nM | ≤ 100 nM |  |  | 
CCC1(c2cccc(S(=O)(=O)C3CC(F)(F)C3)c2)C2=C(CC(C)(C)CC2=O)Nc2n[nH]cc21 (centres unmarked) [Compound 944019] | ≤ 100 nM | ≤ 100 nM |  |  | 
CCC1(c2cccc(-c3cn[nH]c3)c2)C2=C(CC(C)(C)NC2=O)Nc2n[nH]cc21 (centres unmarked) [Compound 944022] |  |  | ≤ 100 nM | 100 to 1000 nM | 
CCc1cccc(N(C)c2cccc(C3(CC)C4=C(CC(C)(C)CC4=O)Nc4n[nH]cc43)c2)n1 (centres unmarked) [Compound 944023] | ≤ 100 nM | 100 to 1000 nM |  |  | 
CCC1(c2cccc(-c3cnco3)c2)C2=C(CC(C)(C)CC2=O)Nc2n[nH]cc21 (centres unmarked) [Compound 944025] | ≤ 100 nM | 100 to 1000 nM |  |  | 
CCC1(c2cccc(-c3cncn3C(C)C)c2)C2=C(CC(C)(C)CC2=O)Nc2n[nH]cc21 (centres unmarked) [Compound 944026] | ≤ 100 nM | ≤ 100 nM |  |  | 
CCC1(c2cccc(-c3cnn(C)c3C)c2)C2=C(CC(C)(C)NC2=O)Nc2n[nH]c(C)c21 (centres unmarked) [Compound 944028] |  |  | ≤ 100 nM | 100 to 1000 nM | 
CCC1(c2cccc(-c3ccnc(C(C)O)c3)c2)C2=C(CC(C)(C)CC2=O)Nc2n[nH]cc21 (centres unmarked) [Compound 944029] | ≤ 100 nM | 100 to 1000 nM |  |  | 
CCC1(c2cccc(-c3cn(C)nc3C)c2)C2=C(CC(C)(C)NC2=O)Nc2n[nH]cc21 (centres unmarked) [Compound 944030] |  |  | ≤ 100 nM | ≤ 100 nM | 
CC[C@]1(c2cccc(-c3ccnc4ccccc34)c2)C2=C(CC(C)(C)CC2=O)Nc2n[nH]cc21 [Compound 944031] | ≤ 100 nM | ≤ 100 nM |  |  | 
CCC1(c2cccc(-c3cc(OC)ncc3F)c2)C2=C(CC(C)(C)CC2=O)Nc2n[nH]cc21 (centres unmarked) [Compound 944032] | ≤ 100 nM | ≤ 100 nM |  |  | IC50 [1, 5]: 100 to 1000 nM; IC50 [2, 6]: 1000 to 5000 nM
CCC1(c2cccc(-c3ccnc4c3CCCC4)c2)C2=C(CC(C)(C)CC2=O)Nc2n[nH]cc21 (centres unmarked) [Compound 944033] | ≤ 100 nM | ≤ 100 nM |  |  | IC50 [1, 5]: ≤ 100 nM; IC50 [2, 6]: 100 to 1000 nM
CC[C@@]1(c2cccc(-c3cc(OC)ncc3F)c2)C2=C(CC(C)(C)CC2=O)Nc2n[nH]cc21 [Compound 944035] | 1000 to 5000 nM | > 5000 nM |  |  | 
CC[C@@]1(c2cccc(-c3ccnc4c3CCCC4)c2)C2=C(CC(C)(C)CC2=O)Nc2n[nH]cc21 [Compound 944036] | 1000 to 5000 nM | > 5000 nM |  |  | 
CC1(C)CC(=O)C2=C(C1)Nc1n[nH]cc1C21COC2(CN(C(=O)C3CCC4(CC3)COC4)C2)C1 (centres unmarked) [Compound 944075] |  |  | ≤ 100 nM | 100 to 1000 nM | 
CCC1(c2cccc(N(C)c3nccc(C)n3)c2)C2=C(CC(C)(C)CC2=O)Nc2n[nH]cc21 (centres unmarked) [Compound 945328] | ≤ 100 nM | ≤ 100 nM |  |  | IC50 [1, 5]: ≤ 100 nM; IC50 [2, 6]: 100 to 1000 nM
CC[C@]1(c2cccc(N(C)c3nccc(C)n3)c2)C2=C(CC(C)(C)CC2=O)Nc2n[nH]cc21 [Compound 945329] | 100 to 1000 nM | 1000 to 5000 nM |  |  | 
CCC1(c2cccc(C(F)(F)F)c2)C2=C(CC(c3ccccc3)NC2=O)Nc2n[nH]cc21 (centres unmarked) [Compound 945363] |  |  | 1000 to 5000 nM | > 5000 nM | 
CC[C@]1(c2cccc(C(F)(F)F)c2)C2=C(C[C@H](c3ccccc3)NC2=O)Nc2n[nH]cc21 [Compound 945364] |  |  | > 5000 nM | > 5000 nM | 
CCC1(c2cccc(C(F)(F)F)c2)C2=C(CN(C)C2=O)Nc2n[nH]cc21 (centres unmarked) [Compound 945367] |  |  | 100 to 1000 nM | 1000 to 5000 nM | 
CC[C@]1(c2cccc(C(F)(F)F)c2)C2=C(CN(C)C2=O)Nc2n[nH]cc21 [Compound 945368] |  |  | > 5000 nM | > 5000 nM | 
CC[C@@]1(c2cccc(C(F)(F)F)c2)C2=C(CN(c3ccccc3)C2=O)Nc2n[nH]cc21 [Compound 945376] |  |  | > 5000 nM | > 5000 nM | 

Compound | IC50 [1, 3] | IC50 [2, 4] | IC50 [1, 7] | IC50 [2, 8] | also measured
CCC1(c2cccc(C(F)(F)F)c2)C2=C(CN(c3ccccc3)C2=O)Nc2n[nH]cc21 (centres unmarked) [Compound 945377] |  |  | 100 to 1000 nM | 1000 to 5000 nM | 
CCC1(c2cccc(C(F)(F)F)c2)C2=C(Nc3n[nH]cc31)C(C)NC2=O (centres unmarked) [Compound 945378] |  |  | ≤ 100 nM | 100 to 1000 nM | 
CCC1(c2cccc(C(F)(F)F)c2)C2=C(Nc3n[nH]cc31)C(C)NC2=O (centres unmarked) [Compound 945379] |  |  | 100 to 1000 nM | 1000 to 5000 nM | 
CC[C@]1(c2cccc(C(F)(F)F)c2)C2=C(Nc3n[nH]cc31)[C@@H](C)NC2=O [Compound 945380] |  |  | > 5000 nM | > 5000 nM | 
CC[C@]1(c2cccc(C(F)(F)F)c2)C2=C(Nc3n[nH]cc31)[C@H](C)NC2=O [Compound 945381] |  |  | > 5000 nM | > 5000 nM | 
CCC1(c2cccc(C(F)(F)F)c2)C2=C(Nc3n[nH]cc31)C(C)CNC2=O (centres unmarked) [Compound 945382] |  |  | ≤ 100 nM | 100 to 1000 nM | 
CC[C@@]1(c2cccc(C(F)(F)F)c2)C2=C(Nc3n[nH]cc31)[C@H](C)CNC2=O [Compound 945383] |  |  | ≤ 100 nM | 100 to 1000 nM | 
CCC1(c2cccc(C(F)(F)F)c2)C2=C(Nc3n[nH]cc31)C(C)CNC2=O (centres unmarked) [Compound 945384] |  |  | 1000 to 5000 nM | > 5000 nM | 
CC[C@]1(c2cccc(C(F)(F)F)c2)C2=C(Nc3n[nH]cc31)[C@H](C)CNC2=O [Compound 945385] |  |  | > 5000 nM | > 5000 nM | 
CC1(C)CC(=O)C2=C(C1)Nc1n[nH]cc1C21CCC(C(=O)N2CCCC2)CC1 (centres unmarked) [Compound 945394] | 100 to 1000 nM | 1000 to 5000 nM |  |  | 
CN(C)C(=O)C1CCC2(CC1)C1=C(CC(C)(C)CC1=O)Nc1n[nH]cc12 (centres unmarked) [Compound 945395] |  |  |  |  | IC50 ([1]; 1 nM GSK3α, 4 μM ATP, 30 minute preincubation, Table 16, read-out: GSK3-A TR-FRET BIOCHEMICAL (TR-FRET), IC50): 100 to 1000 nM; IC50 ([2]; 1 nM GSK3b, 2 μM ATP, 30 minute preincubation, Table 16, read-out: GSK3-B TR-FRET BIOCHEMICAL (TR-FRET), IC50): 1000 to 5000 nM
CC1(C)CC(=O)C2=C(C1)Nc1n[nH]cc1C21CCC(C(=O)N2CCCC2)CC1 (centres unmarked) [Compound 945396] | 100 to 1000 nM | 100 to 1000 nM |  |  | 
CNC(=O)C1CCC2(CC1)C1=C(CC(C)(C)CC1=O)Nc1n[nH]cc12 (centres unmarked) [Compound 945397] | 100 to 1000 nM | 100 to 1000 nM |  |  | 
CC1(C)CC(=O)C2=C(C1)Nc1n[nH]cc1C21COC2(CN(C(=O)C3CCOCC3)C2)C1 (centres unmarked) [Compound 945407] |  |  | ≤ 100 nM | 100 to 1000 nM | 
CCC1(c2cccc(-c3ccnc(C)c3OC)c2)C2=C(CC(C)(C)CC2=O)Nc2n[nH]cc21 (centres unmarked) [Compound 945458] | ≤ 100 nM | ≤ 100 nM |  |  | 
CCC1(c2cccc(-c3cn[nH]c3)c2)C2=C(CC(C)(C)NC2=O)Nc2n[nH]c(C)c21 (centres unmarked) [Compound 945459] |  |  | ≤ 100 nM | ≤ 100 nM | 
CCC1(c2cccc(-c3cn(C)nc3C)c2)C2=C(CC(C)(C)NC2=O)Nc2n[nH]c(C)c21 (centres unmarked) [Compound 945460] |  |  | ≤ 100 nM | ≤ 100 nM | 
CCC1(c2cccc(-c3ccncc3C)c2)C2=C(CC(C)(C)NC2=O)Nc2n[nH]cc21 (centres unmarked) [Compound 945461] |  |  | ≤ 100 nM | ≤ 100 nM | 
CCC1(c2cccc(-c3c(C)nn(C)c3C)c2)C2=C(CC(C)(C)NC2=O)Nc2n[nH]cc21 (centres unmarked) [Compound 945462] |  |  | ≤ 100 nM | ≤ 100 nM | 
CCC1(c2cccc(S(=O)(=O)C(C)C)c2)C2=C(CC(C)(C)NC2=O)Nc2n[nH]cc21 (centres unmarked) [Compound 945464] |  |  | ≤ 100 nM | ≤ 100 nM | 
CCC1(c2cccc(N(C)C3CC3)c2)C2=C(CC(C)(C)CC2=O)Nc2n[nH]cc21 (centres unmarked) [Compound 945466] | 100 to 1000 nM | 1000 to 5000 nM |  |  | 
CCC1(c2cccc(-c3cc(C)ncc3OC)c2)C2=C(CC(C)(C)CC2=O)Nc2n[nH]cc21 (centres unmarked) [Compound 945468] | ≤ 100 nM | 100 to 1000 nM |  |  | 
CC[C@@]1(c2cccc(-c3ccncc3CO)c2)C2=C(CC(C)(C)CC2=O)Nc2n[nH]cc21 [Compound 945469] | ≤ 100 nM | ≤ 100 nM |  |  | 
CC[C@]1(c2cccc(-c3cn(C)nc3C)c2)C2=C(CC(C)(C)NC2=O)Nc2n[nH]cc21 [Compound 945470] |  |  | ≤ 100 nM | ≤ 100 nM | IC50 [1, 5]: 100 to 1000 nM; IC50 [2, 6]: 1000 to 5000 nM
CC[C@]1(c2cccc(-c3ccncc3OC)c2)C2=C(CC(C)(C)CC2=O)Nc2n[nH]cc21 [Compound 945471] | 1000 to 5000 nM | 1000 to 5000 nM |  |  | IC50 [1, 5]: > 5000 nM; IC50 [2, 6]: > 5000 nM
